{"source": "ChEMBL document CHEMBL4376829", "about": "“Discovery and biological evaluation of vinylsulfonamide derivatives as highly potent, covalent TEAD autopalmitoylation inhibitors” (Eur J Med Chem, 2019)", "key": {"[1]": {"target": "Serine/threonine-protein kinase 24 (Homo sapiens) (UniProt Q9Y6E0)", "assay": "Inhibition of recombinant human MST3 (1 to 304 residues) at 10 uM using ERMRPRKRQGSVRRRV as substrate measured after 40 mins in presence of [gamma33P]ATP by scintillation counting method relative to control"}, "[2]": {"target": "Phosphatidylinositol 4-phosphate 5-kinase type-1 gamma (Homo sapiens) (UniProt O60331)", "assay": "Inhibition of recombinant full-length human PIP5K1g at 10 uM using phosphatidylinositol 4-phosphate as substrate measured after 40 mins by fluorescence assay relative to control"}, "[3]": {"target": "Proto-oncogene tyrosine-protein kinase Src (Homo sapiens) (UniProt P12931)", "sequence (P12931 2-536 limits assumed)": "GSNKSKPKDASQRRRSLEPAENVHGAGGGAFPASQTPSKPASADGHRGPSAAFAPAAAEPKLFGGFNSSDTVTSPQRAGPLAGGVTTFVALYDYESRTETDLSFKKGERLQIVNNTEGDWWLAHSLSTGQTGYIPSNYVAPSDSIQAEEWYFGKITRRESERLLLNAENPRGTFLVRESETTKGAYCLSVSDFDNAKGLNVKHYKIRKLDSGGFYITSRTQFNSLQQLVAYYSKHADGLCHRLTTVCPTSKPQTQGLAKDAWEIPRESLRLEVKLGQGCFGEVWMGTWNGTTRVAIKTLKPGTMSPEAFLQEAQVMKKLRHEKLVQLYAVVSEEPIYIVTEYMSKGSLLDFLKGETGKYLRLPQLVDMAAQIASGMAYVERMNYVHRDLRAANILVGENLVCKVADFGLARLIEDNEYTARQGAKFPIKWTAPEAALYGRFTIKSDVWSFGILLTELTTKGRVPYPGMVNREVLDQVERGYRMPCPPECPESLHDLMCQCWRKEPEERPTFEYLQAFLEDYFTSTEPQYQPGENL", "assay": "Inhibition of recombinant human Src (1 to 530 residues) at 10 uM using GGEEEEYFELVKKKK as substrate measured after 40 mins in presence of [gamma33P]ATP by scintillation counting method relative to control"}, "[4]": {"assay": "GSH reactivity in PBS assessed as GSH adduct formation at 1 mM after 8 hrs by UPLC-MS analysis", "type": "physicochemical", "details": "buffer, 1000 µM; call rule not given here"}, "[5]": {"tested_on": "RAF proto-oncogene serine/threonine-protein kinase (Homo sapiens), P04049 [Y340D,Y341D]", "assay": "Inhibition of recombinant human c-RAF Y340D/Y341D mutant (360 to end residues) at 10 uM using inactive MEK1 as substrate measured after 40 mins in presence of [gamma33P]ATP by scintillation counting method relative to control"}, "[6]": {"target": "Serine-protein kinase ATM (Homo sapiens) (UniProt Q13315)", "assay": "Inhibition of recombinant full-length human ATM at 10 uM using GST-cMyc-p53 as substrate measured after 40 mins by EIA method relative to control"}, "[7]": {"target": "Protein arginine N-methyltransferase 6 (Homo sapiens) (UniProt Q96LA8)", "assay": "Inhibition of human PRMT6 at 10 uM relative to control"}, "[8]": {"target": "Activated CDC42 kinase 1 (Homo sapiens) (UniProt Q07912)", "assay": "Inhibition of human ACK1 (1 to 389 residues) at 10 uM using EFPIYDFLPAKKK as substrate after 40 mins in presence of [gamma33P]ATP by scintillation counting method relative to control"}, "Homo sapiens [9]": {"organism": "Homo sapiens", "assay": "Inhibition of recombinant human Plk4 S34T mutant (1 to 273 residues) at 10 uM using casein as substrate measured after 120 mins in presence of [gamma33P]ATP by scintillation counting method relative to control"}, "Homo sapiens [10]": {"organism": "Homo sapiens", "assay": "Inhibition of TEAD transcriptional activity in human HCT116 cells assessed as reduction in CYR61 expression by qRT-PCR analysis", "type": "cell-based"}, "[11]": {"target": "CREB-binding protein (Homo sapiens) (UniProt Q92793)", "assay": "Inhibition of human CBP-BRD at 10 uM relative to control"}, "[12]": {"target": "Activin receptor type-2A (Homo sapiens) (UniProt P27037)", "assay": "Inhibition of recombinant human ACTR2 (162 to end residues) at 10 uM using casein as substrate after 120 mins in presence of [gamma33P]ATP by scintillation counting method relative to control"}, "[13]": {"target": "Serine/threonine-protein kinase D3 (Homo sapiens) (UniProt O94806)", "sequence (O94806 whole entry)": "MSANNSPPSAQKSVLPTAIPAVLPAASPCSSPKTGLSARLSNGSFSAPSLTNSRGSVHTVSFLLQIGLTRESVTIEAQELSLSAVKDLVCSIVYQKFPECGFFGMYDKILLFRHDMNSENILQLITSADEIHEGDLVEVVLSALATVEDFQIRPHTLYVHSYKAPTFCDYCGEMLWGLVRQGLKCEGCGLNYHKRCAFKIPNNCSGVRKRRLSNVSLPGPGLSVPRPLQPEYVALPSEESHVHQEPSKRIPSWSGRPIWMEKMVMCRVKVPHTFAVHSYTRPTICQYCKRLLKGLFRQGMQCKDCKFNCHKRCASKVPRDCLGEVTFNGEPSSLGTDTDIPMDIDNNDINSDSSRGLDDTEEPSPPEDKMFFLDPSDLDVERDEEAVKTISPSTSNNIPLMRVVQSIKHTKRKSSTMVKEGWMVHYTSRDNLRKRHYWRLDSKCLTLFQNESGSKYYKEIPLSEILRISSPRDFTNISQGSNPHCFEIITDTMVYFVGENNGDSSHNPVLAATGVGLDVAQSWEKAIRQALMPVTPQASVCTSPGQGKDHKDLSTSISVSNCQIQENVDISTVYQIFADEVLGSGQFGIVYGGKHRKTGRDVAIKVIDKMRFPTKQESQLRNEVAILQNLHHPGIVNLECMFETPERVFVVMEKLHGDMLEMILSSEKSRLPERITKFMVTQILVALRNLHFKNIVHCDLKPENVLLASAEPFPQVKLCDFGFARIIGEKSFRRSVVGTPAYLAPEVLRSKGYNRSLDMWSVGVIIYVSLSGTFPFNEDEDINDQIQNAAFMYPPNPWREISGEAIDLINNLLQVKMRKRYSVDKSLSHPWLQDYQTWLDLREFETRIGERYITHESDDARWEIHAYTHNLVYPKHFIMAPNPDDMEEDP", "assay": "Inhibition of full-length recombinant human PKD3 at 10 uM using KKLRRTLSVA as substrate after 40 mins by in presence of [gamma33P]ATP by scintillation counting method relative to control"}, "[14]": {"target": "Tyrosine-protein kinase ITK/TSK (Homo sapiens) (UniProt Q08881)", "sequence (Q08881 whole entry, the tested form may be a part)": "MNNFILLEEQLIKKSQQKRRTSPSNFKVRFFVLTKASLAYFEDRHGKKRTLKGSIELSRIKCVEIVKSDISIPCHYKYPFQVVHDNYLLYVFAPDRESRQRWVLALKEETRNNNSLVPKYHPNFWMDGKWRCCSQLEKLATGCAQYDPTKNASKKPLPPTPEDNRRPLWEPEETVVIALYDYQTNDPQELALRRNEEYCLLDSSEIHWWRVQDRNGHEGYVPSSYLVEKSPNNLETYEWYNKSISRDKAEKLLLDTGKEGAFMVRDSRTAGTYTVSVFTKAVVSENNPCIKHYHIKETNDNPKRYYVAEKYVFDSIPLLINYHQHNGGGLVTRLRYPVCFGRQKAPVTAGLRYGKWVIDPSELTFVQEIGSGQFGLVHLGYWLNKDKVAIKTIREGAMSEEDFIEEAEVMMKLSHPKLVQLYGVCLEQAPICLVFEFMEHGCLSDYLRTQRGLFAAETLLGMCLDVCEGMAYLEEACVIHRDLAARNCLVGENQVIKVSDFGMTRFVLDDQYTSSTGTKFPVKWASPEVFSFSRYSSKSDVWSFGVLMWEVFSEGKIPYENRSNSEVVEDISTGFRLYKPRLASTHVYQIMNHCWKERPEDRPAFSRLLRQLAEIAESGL", "assay": "Inhibition of recombinant human ITK (352 to 617 residues) at 10 uM using myelin basic protein as substrate measured after 40 mins in presence of [gamm33P]ATP by scintillation counting method relative to control"}, "[15]": {"target": "Myosin-IIIb (Homo sapiens) (UniProt Q8WXR4)", "sequence (Q8WXR4 whole entry, the tested form may be a part)": "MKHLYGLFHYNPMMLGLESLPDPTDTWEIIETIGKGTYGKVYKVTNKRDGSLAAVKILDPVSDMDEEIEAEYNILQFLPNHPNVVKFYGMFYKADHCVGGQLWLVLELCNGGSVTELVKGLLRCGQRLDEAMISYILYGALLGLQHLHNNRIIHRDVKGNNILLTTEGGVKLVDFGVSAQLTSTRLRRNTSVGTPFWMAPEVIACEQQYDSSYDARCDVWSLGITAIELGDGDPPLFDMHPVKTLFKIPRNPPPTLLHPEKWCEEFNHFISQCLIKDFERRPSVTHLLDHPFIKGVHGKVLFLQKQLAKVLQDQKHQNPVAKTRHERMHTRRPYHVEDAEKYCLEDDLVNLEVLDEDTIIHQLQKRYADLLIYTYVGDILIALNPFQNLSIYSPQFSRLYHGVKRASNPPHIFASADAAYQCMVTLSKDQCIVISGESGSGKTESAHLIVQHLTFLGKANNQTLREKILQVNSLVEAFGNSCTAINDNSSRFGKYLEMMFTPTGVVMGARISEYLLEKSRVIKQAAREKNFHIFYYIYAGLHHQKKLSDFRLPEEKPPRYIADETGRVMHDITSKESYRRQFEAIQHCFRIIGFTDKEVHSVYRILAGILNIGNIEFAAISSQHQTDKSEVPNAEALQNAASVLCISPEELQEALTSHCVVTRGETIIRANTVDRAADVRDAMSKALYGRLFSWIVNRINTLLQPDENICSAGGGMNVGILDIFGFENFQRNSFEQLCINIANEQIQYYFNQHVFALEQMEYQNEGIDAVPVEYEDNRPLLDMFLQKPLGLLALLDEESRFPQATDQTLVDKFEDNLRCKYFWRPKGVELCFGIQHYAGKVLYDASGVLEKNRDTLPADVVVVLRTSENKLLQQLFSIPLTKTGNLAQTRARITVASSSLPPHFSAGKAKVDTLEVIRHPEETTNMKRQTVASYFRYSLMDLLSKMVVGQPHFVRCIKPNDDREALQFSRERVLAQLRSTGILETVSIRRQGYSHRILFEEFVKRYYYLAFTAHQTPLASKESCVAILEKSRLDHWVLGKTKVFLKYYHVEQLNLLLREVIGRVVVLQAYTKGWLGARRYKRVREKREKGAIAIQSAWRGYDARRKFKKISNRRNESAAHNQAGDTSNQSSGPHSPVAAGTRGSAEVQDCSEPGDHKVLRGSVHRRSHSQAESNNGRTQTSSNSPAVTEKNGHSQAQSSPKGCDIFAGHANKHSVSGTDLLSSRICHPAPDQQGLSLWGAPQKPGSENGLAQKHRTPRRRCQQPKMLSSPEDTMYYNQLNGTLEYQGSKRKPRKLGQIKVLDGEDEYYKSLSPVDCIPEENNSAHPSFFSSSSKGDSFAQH", "assay": "Inhibition of recombinant full-length human MYO3B (1 to 326 residues) at 10 uM using RLGRDKYKTLRQIRQ as substrate measured after 40 mins in presence of [gamma33P]ATP by scintillation counting method relative to control"}, "[16]": {"target": "Serine/threonine-protein kinase ULK1 (Homo sapiens) (UniProt O75385)", "assay": "Inhibition of recombinant human ULK1 (1 to 314 residues) at 10 uM using casein as substrate measured after 40 mins in presence of [gamm33P]ATP by scintillation counting method relative to control"}, "[17]": {"tested_on": "Transcriptional enhancer factor TEF-3 (Homo sapiens), Q15561 [C367A]", "sequence (Q15561 whole entry C367A)": "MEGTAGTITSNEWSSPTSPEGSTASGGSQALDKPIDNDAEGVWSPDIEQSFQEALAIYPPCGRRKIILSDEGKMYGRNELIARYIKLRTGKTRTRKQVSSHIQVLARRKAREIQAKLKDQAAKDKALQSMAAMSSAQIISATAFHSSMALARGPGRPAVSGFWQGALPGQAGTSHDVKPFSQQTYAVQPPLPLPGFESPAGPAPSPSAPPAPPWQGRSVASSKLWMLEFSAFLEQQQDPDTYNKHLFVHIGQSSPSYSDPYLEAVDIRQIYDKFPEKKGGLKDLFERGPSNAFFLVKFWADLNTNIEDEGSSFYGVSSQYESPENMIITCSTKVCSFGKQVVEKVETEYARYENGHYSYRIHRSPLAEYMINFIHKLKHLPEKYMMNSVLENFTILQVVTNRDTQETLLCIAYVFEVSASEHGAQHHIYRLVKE", "assay": "Binding affinity to TEAD4-YBD C367A mutant (unknown origin) assessed as change in melting temperature by SYPRO-dye based thermal shift assay"}, "[18]": {"target": "Cyclin-dependent kinase-like 2 (Homo sapiens) (UniProt Q92772)", "sequence (Q92772 whole entry)": "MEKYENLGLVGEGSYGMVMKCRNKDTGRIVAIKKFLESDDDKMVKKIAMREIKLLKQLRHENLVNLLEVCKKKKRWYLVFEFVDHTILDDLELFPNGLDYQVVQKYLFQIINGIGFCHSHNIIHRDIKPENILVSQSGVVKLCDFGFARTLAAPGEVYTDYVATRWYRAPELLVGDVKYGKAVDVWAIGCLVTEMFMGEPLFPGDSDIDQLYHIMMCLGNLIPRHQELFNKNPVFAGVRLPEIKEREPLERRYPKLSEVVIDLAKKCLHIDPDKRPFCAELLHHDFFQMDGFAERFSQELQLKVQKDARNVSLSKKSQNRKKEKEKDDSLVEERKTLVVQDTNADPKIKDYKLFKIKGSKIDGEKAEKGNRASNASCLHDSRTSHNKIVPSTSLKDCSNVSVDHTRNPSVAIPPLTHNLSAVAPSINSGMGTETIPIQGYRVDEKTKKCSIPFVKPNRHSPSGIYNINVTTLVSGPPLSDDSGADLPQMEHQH", "assay": "Inhibition of human CDKL2 at 10 uM by radiometric method relative to control"}, "[19]": {"target": "Histone acetyltransferase KAT6A (Homo sapiens) (UniProt Q92794)", "assay": "Inhibition of human MOZ at 10 uM relative to control"}, "[20]": {"target": "Inhibitor of nuclear factor kappa-B kinase subunit alpha (Homo sapiens) (UniProt O15111)", "assay": "Inhibition of full length recombinant human IKKalpha at 10 uM after 40 mins in presence of [gamma33P]ATP by scintillation counting method relative to control"}, "[21]": {"target": "Tyrosine-protein kinase BTK (Homo sapiens) (UniProt Q06187)", "assay": "Inhibition of full-length recombinant human BTK at 10 uM using KVEKIGEGTYGVVYK as substrate measured after 40 mins in presence of [gamma33P]ATP by scintillation counting method relative to control"}, "[22]": {"target": "Tyrosine-protein kinase ZAP-70 (Homo sapiens) (UniProt P43403)", "assay": "Inhibition of recombinant full-length human ZAP70 at 10 uM using poly(Glu, Tyr) 4:1 as substrate measured after 40 mins in presence of [gamma33P]ATP by scintillation counting method5 relative to control"}, "[23]": {"target": "Transcriptional enhancer factor TEF-3 (Homo sapiens, UniProt Q15561)", "sequence (Q15561 whole entry, the tested form may be a part)": "as the sequence (Q15561 whole entry C367A) above, with A367C counted along it", "assay": "Inhibition of N-terminal His6 tagged human TEAD4-YBD (217 to 434 residues) expressed in Escherichia coli C43 (DE3) cells assessed as reduction in autopalmitoylation at 800 nM preincubated for 2 hrs followed by palmitoyl alkyne-coenzyme A addition and measured after 30 mins by immunoblot analysis relative to control"}, "[24]": {"target": "Protein kinase C beta type (Homo sapiens) (UniProt P05771)", "assay": "Inhibition of recombinant human PKCbeta2 (2 to end residues) at 10 uM using histone H1 as substrate after 40 mins by in presence of [gamma33P]ATP by scintillation counting method relative to control"}, "[25]": {"tested_on": "TGF-beta receptor type-1 (Homo sapiens), P36897 [T204D]", "sequence (P36897 whole entry T204D)": "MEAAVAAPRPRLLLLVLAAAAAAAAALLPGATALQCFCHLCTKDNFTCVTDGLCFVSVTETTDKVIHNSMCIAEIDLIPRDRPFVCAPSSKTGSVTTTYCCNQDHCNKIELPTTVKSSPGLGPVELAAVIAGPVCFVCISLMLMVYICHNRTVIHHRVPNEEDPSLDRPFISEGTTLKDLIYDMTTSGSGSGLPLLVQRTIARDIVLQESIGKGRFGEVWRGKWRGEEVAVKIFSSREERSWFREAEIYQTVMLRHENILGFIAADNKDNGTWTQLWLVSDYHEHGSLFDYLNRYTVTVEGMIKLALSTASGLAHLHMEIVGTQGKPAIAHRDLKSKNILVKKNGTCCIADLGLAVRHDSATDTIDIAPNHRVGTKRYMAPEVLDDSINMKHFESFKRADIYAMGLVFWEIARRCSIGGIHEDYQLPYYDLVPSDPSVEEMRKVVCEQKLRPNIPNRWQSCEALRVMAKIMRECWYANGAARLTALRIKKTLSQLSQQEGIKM", "assay": "Inhibition of recombinant human TGFBR1 T204D mutant (200 to end residues) at 10 uM using casein as substrate measured after 40 mins in presence of [gamm33P]ATP by scintillation counting method relative to control"}, "[26]": {"target": "Death-associated protein kinase 2 (Homo sapiens) (UniProt Q9UIK4)", "assay": "Inhibition of full-length recombinant human DAPK2 at 10 uM using calmodulin as substrate after 40 mins by in presence of [gamma33P]ATP by scintillation counting method relative to control"}}}
{"smiles": "C=CS(=O)(=O)Nc1ccc(Cc2ccc3ccccc3c2)cc1", "values": [{"measurement": "inhibition", "setting": "[1]", "value": 3, "unit": "%"}, {"measurement": "inhibition", "setting": "[2]", "value": -3, "unit": "%"}, {"measurement": "inhibition", "setting": "[3]", "value": 17, "unit": "%"}, {"measurement": "Activity", "setting": "[4]", "value": "Not Active"}, {"measurement": "inhibition", "setting": "[5]", "value": -8, "unit": "%"}, {"measurement": "inhibition", "setting": "[6]", "value": 2, "unit": "%"}, {"measurement": "inhibition", "setting": "[7]", "value": 7, "unit": "%"}, {"measurement": "inhibition", "setting": "[8]", "value": 10, "unit": "%"}, {"measurement": "inhibition", "setting": "Homo sapiens [9]", "value": -2, "unit": "%"}, {"measurement": "inhibition", "setting": "Homo sapiens [10]", "value": "Dose-dependent effect"}, {"measurement": "inhibition", "setting": "[11]", "value": 10, "unit": "%"}, {"measurement": "inhibition", "setting": "[12]", "value": -5, "unit": "%"}, {"measurement": "inhibition", "setting": "[13]", "value": 22, "unit": "%"}, {"measurement": "inhibition", "setting": "[14]", "value": 6, "unit": "%"}, {"measurement": "inhibition", "setting": "[15]", "value": 1, "unit": "%"}, {"measurement": "inhibition", "setting": "[16]", "value": 7, "unit": "%"}, {"measurement": "ΔTm", "setting": "[17]", "value": 1.2, "unit": "°C"}, {"measurement": "inhibition", "setting": "[18]", "value": 3, "unit": "%"}, {"measurement": "inhibition", "setting": "[19]", "value": 7, "unit": "%"}, {"measurement": "inhibition", "setting": "[20]", "value": -2, "unit": "%"}, {"measurement": "inhibition", "setting": "[21]", "value": 5, "unit": "%"}, {"measurement": "inhibition", "setting": "[22]", "value": 5, "unit": "%"}, {"measurement": "inhibition", "setting": "[23]", "value": 91.6, "unit": "%"}, {"measurement": "inhibition", "setting": "[24]", "value": 4, "unit": "%"}, {"measurement": "inhibition", "setting": "[25]", "value": -2, "unit": "%"}, {"measurement": "inhibition", "setting": "[26]", "value": -7, "unit": "%"}]}
